Experimental data from US20200404907A1, “METHOD OF REDUCING CROP DAMAGE” (BAYER AKTIENGESELLSCHAFT, priority 2018, published 2020).

Key:
[1] = system: wheat seeds (winter wheat, TRZAW); assay: Prior-art method: post-emergence herbicide and tank-mix safener, visual crop damage in greenhouse pots; details: herbicide 200 g/ha post-emergence (BBCH11); no safener; 14 days after application; mean of at least 3 replicates
[2] = system: wheat seeds (winter wheat, TRZAW); assay: Method D: safener seed treatment then pre-emergence herbicide plus safener tank mix, visual crop damage; type: in vivo
Description: (§1) For the safener seed treatment, sufficient seeds were weighed into screw top glass bottles approximately twice the volume of the seeds.
(§2) The safener (mefenpyr-diethyl, formulated as suspension concentrate (SC)) was weighed out so that the required rates (g a.i./kg seed) would be obtained, dissolved in water (1 ml water per 10 g of seeds), and added to the seeds to produce a slurry.
(§3) The bottles were capped and then placed in an overhead shaker (set at medium speed for up to 1 hour) so that the seeds were evenly coated with the slurry. The bottles were uncapped and the seeds were sown as described above.
(§4) For the seed treatment process, the blind formulation (the SC formulation without the safener mefenpyr-diethyl) was used as seed treatment as described above.

[3] = system: wheat seeds (winter wheat, TRZAW); assay: Method A: safener seed treatment then post-emergence herbicide, visual crop damage in greenhouse pots; type: in vivo
Description: as §1, §2, §3, §4

[4] = system: wheat seeds (winter wheat, TRZAW); assay: Method C: safener seed treatment then post-emergence herbicide plus safener tank mix, visual crop damage; type: in vivo
Description: as §1, §2, §3, §4

[5] = herbicide 200 g/ha post-emergence (BBCH11), no safener, 14 days after application
[6] = safener seed treatment 0.5 g/kg only, no herbicide

SMILES | % crop damage [1] | % crop damage ([2]; herbicide 50 g/ha pre-emergence, no safener, 14 days after application) | % crop damage [3, 5] | % crop damage [4, 5] | % crop damage ([2]; safener 200 g/ha in tank mix pre-emergence only, no herbicide, 14 days after application) | % crop damage [2, 6] | % crop damage [3, 6] | % crop damage ([4]; safener 200 g/ha in tank mix post-emergence only, no herbicide, 14 days after application) | % crop damage [4, 6]
Cc1ccccc1CO[C@@H]1C[C@@]2(C(C)C)CC[C@]1(C)O2 (racemic) [Herbicide post-em., Cinmethylin] | 28% | 17% | 28% | 28% |  |  |  |  | 
CCOC(=O)C1=NN(c2ccc(Cl)cc2Cl)C(C)(C(=O)OCC)C1 (stereo not drawn) [Safener seed treatment, ethyl 1-(2,4-dichlorophenyl)-5-(ethoxycarbonyl)-5-methyl-2-pyrazoline-3-carboxylate] |  |  |  |  | 5% | 2% | 0% | 5% | 0%
